# Laboratory results as given in patent publication US4469689A, “Sulfonate containing ester prodrugs of corticosteroids” (The Upjohn Company, priority 1983, dated 1984).
# Counter-ions that a name gives are not always drawn.
# Experiments:
# [1] = background statement; cited from earlier work
# [2] = hydrolysis of dilute aqueous solutions, t90% estimated from hydrolysis rate constants at 25° C. (Table I); assay type: physicochemical; details: pH 4.75 (pH of optimum stability), dilute aqueous solution
# Method: From the hydrolysis rate constants determined at 25° C. at various pH vlaues for dilute aqueous solutions of the compounds of the invention, estimates of t90% (time for 10% hydrolysis) may be calculated.
# [3] = base catalyzed hydrolysis rate in concentrated versus dilute solution; assay type: physicochemical; details: 0.267 M vs 5×10^-4 M
# Excerpt: The actual shelf-life of formulations of the above compounds would be expected to differ fom the above estimates for two reasons: (1) The solubility of the parent corticosteroid formed on hydrolysis may be exceeded prior to 10% degradation of the ester. Micelle formation by the intact prodrugs of Formula I results in solubilization of free corticosteroid thereby prolonging shelf-life. The degree of solubilization varies with the ester concentration, nature of the pro-moiety, and the structure of the corticosteroid. (2) Micelle formation by the intact prodrug in concentrated solutions results in stabilization of the ester linkage toward base catalyzed hydrolysis. For example, the base catalyzed hydrolysis rate in a 0.267 M solution of the compound of Example 1 is less than one-seventh the rate in a 5×10^-4 M solution.
# mice = details: M. Kawamura et al., Yakugaku Zasshi, 91, 871 (1971); cited from earlier work
smiles,measurement,setting,value
C[C@]12C=CC(=O)C=C1CC[C@@H]1[C@@H]2C(=O)C[C@@]2(C)[C@H]1CC[C@]2(O)C(=O)CO [prednisone],water solubility,[1],generally poorly water soluble
"C[C@H]1C[C@@H]2[C@H]([C@@H](O)C[C@@]3(C)[C@H]2CC[C@]3(O)C(=O)COC(=O)CCCCCS(=O)(=O)O)[C@@]2(C)C=CC(=O)C=C12 [Example 1, 6α-Methylprednisolone, 21-(6-sulfohexanoate), sodium salt]",t90% (time for 10% hydrolysis),[2],2.7 years
same,base catalyzed hydrolysis rate in a 0.267 M solution relative to the rate in a 5×10^-4 M solution,[3],less than one-seventh
"C[C@H]1C[C@@H]2[C@H]([C@@H](O)C[C@@]3(C)[C@H]2CC[C@]3(O)C(=O)COC(=O)CCCCCCCCCCS(=O)(=O)O)[C@@]2(C)C=CC(=O)C=C12 [Example 2, 6α-Methylprednisolone, 21-(11-sulfohendecanoate), sodium salt]",t90% (time for 10% hydrolysis),[2],3.0 years
C[C@]12CCC(=O)C=C1CC[C@@H]1[C@@H]2[C@@H](O)C[C@@]2(C)[C@H]1CC[C@]2(O)C(=O)COS(=O)(=O)O [21-sulfate of hydrocortisone],activity in mice,mice,inactive
